According to article PMC8049018, “A MIF‐Derived Cyclopeptide that Inhibits MIF Binding and Atherogenic Signaling via the Chemokine Receptor CXCR2” (Chembiochem, 2020):
Bridge positions count the residues as written; N and C are the ends. Ends that are not written are not given here. Peptide text beside a SMILES is read from it. Fluos = 5(6)-carboxyfluorescein

How the values were obtained:
[1] = Proteolytic stability assay in human plasma; format: in vitro ADME; conditions: 37 °C; for half-life: human plasma (citrate-anticoagulated), human plasma (citrate 10 mM, pH 7.0), peptide 200–500 μg/mL, TCA stop, intact peptide by C18 RP-HPLC (214 nm) peak area, MALDI-MS verified, three independent incubations, read-out: t1/2 in human blood plasma (converted)
Protocol: Proteolytic stability assay: Proteolytic stability studies of peptides were performed following a previously described experimental protocol.[ ^20 , ^23 ] Briefly, peptides were incubated (200–500 μg/mL) in human plasma, isolated from the blood of healthy volunteers by routine methods using citrate (10 mM, pH 7.0) as an anti‐coagulant, at 37 °C for various time intervals. At the end of each interval, a stop solution (1 : 1) containing aqueous trichloroacetic acid (TCA, 10 %, v/v) was added and the samples kept on ice for 10 min. Samples were centrifuged at 20 000 g for 4 min, the supernatants retrieved and mixed 1 : 2 with a solution of 80 % HPLC buffer B (0.05 % (v/v) TFA in 90 % (v/v) CH3CN in water) and 20 % HPLC buffer A (0.058 % (v/v) TFA in water). Samples were analyzed by RP‐HPLC (detection at 214 nm) using a Nucleosil 100 C18 column (Grace; length 33 mm, i.d. 8 mm, 7 μm particle size). ^[24] The flow rate was 2 mL/min and the samples were analyzed with an elution program consisting of 2 steps; first step: 10 % HPLC buffer B in buffer A (1 min) and second step: a gradient from 10 to 90 % HPLC buffer B in buffer A (6 min). Peaks were collected, immediately frozen, lyophilized, and their molecular weights determined by MALDI‐MS. The HPLC peak areas were used to quantify remaining peptides in plasma.

[2] = CD concentration dependence study; format: physicochemical; conditions: between 5 and 100 μM
Source text: Peptides: Linear MIF‐derived peptides were generated by standard Fmoc‐based solid phase peptide synthesis (SPPS) in their N‐terminally acetylated and C‐terminally amidated forms and purified by reversed‐phase (RP)‐HPLC as previously described. ^[18] 5(6)‐Carboxyfluorescein (Fluos) N‐terminally labeled peptides were synthesized as described. ^[19] Peptide purity was verified by matrix‐assisted laser desorption ionization mass spectrometry (MALDI‐MS). Cyclic peptide derivatives MIF(cyclo0), MIF(cyclo4), MIF(cyclo6), and MIF(cyclo10), containing terminal cysteines and different numbers of glycine and serine spacer residues to tailor ring size, were custom‐synthesized and purified (>96 % purity grade) by American Peptide Company (APC), Inc./Bachem (Bubendorf, Switzerland), or as described previously, ^[20] applying standard disulfide‐based oxidation procedures. […] The sequence of the scrambled control peptide of MIF(47–56) is […].
Circular dichroism spectroscopy: CD spectra were recorded on a Jasco J‐715 spectropolarimeter in a wavelength range between 190 and 250 nm. Spectra were measured at 0.1 nm intervals and a response time of 1 s. […] Each spectrum was measured three times, averaged and smoothed after background subtraction of the buffer. […]

[3] = biological target: T1, Alexa‐488‐labeled recombinant MIF (Alexa‐MIF) (Homo sapiens, UniProt P14174); test: Fluorescence spectroscopic titration of Alexa-MIF with peptide; format: binding; conditions: Alexa-MIF 10 nM, peptide 0.1- to 1000-fold molar excess, 10 mM sodium phosphate pH 7.4, 1 % HFIP, RT, emission at 519 nm, three titrations
T1 construct: made in house
T1 sequence (P14174 1-115): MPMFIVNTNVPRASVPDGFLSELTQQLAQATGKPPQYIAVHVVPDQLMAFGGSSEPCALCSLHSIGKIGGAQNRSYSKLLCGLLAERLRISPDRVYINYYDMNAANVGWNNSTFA
Protocol: Fluorescence spectroscopy: Fluorescence spectroscopic titrations were performed on a Jasco FP‐6500 spectrofluorometer. Alexa Fluor‐488‐labelled rMIF (Alexa‐MIF) was reconstituted in 20 mM sodium phosphate buffer (pH 7.2). […] The excitation wavelength was set at 492 nm and fluorescence emission spectra were recorded between 500 and 600 nm within 2–3 min after the preparation of the mixtures at room temperature (RT).

CXCR2 [4] = biological target: T2, CXCR2 (Homo sapiens, UniProt P25025); test: Label-free dynamic mass redistribution (DMR), HEK293-CXCR2 transfectants; format: cell-based; conditions: peptide 500 μM (MIF(47–56) also 100–500 μM), 30 s intervals
T2 construct: expressed in transfected cells
T2 sequence (P25025 1-360): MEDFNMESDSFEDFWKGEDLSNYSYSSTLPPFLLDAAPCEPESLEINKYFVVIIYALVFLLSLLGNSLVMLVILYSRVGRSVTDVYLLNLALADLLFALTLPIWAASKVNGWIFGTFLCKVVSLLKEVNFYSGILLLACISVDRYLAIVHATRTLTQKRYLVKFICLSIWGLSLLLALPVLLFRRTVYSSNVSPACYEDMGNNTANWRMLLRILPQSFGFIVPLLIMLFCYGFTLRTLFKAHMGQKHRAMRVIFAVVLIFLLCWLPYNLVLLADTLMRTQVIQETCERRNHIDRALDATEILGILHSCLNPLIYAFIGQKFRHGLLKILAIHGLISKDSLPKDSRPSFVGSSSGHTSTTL
Protocol: Label‐free dynamic mass redistribution: Dynamic mass redistribution (DMR) analysis ^[22] was performed according to Perkin Elmer's instructions for label‐free DMR measurements. Briefly, cells were seeded at a density of 40 000 cells per well of an EnSpire label‐free 96‐well fibronectin‐coated cell assay microplate (PerkinElmer). Post‐seeding, the cells were equilibrated at RT for 30 min and cultivated overnight in serum‐containing DMEM/F‐12 medium. The next day, the cells were washed four times with assay buffer containing 20 mM HEPES and 1 % DMSO in HBSS (pH 7.4), using an aspiration wand leaving a residual volume of 35 μL. The plate was equilibrated at RT for 2 h. […] Before adding the peptides, baseline measurements were performed for 10 min (30 s intervals) using the EnSpire Label‐free Multimode Plate Reader (PerkinElmer). Then, 20 μL of the respective peptides were added to the cells at a final concentration of 500 μM followed by real‐time measurements over a time period of 40 min (30 s intervals). The signal output represents a cumulative response overlay of all cells.

[5] = system: Primary human monocytes (MIF/CXCR2 axis); test: Transwell migration assay, MIF-induced monocyte chemotaxis; format: cell-based; conditions: peptide 5 μM, human MIF 8 nM, Transwell 5 μm pores, 3 h, 37 °C, n=3–11
Protocol: Transwell migration assay: The inhibitory potential of the MIF‐derived peptide analogues was measured by Transwell chemotaxis assay using CD14^+ monocytes isolated from PBMCs or the entire PBMC fraction, as previously described. ^[7a] Briefly, PBMCs from buffy coats or CD14+ monocytes isolated from PBMCs were diluted in RPMI1640 supplemented with 0.5 % bovine serum albumin (BSA) at a density of […] cells/mL. Cells were placed into the upper chamber of a 24‐well cell culture inserts with 5 μm pore size (Corning). 8 nM full‐length MIF served as chemoattractant and was pre‐incubated with or without 5 μM of the respective peptides and applied to the lower chamber. After a 3 h migration interval at 37 °C (5 % CO2), cells were collected and counted via a CASY Cell Counter (OLS, OMNI Life Science, Bremen, Germany).

CXCR2 [6] = biological target: T2, CXCR2; test: Receptor binding assay, flow cytometry, HEK293-CXCR2 vs HEK293-WT; conditions: 3.7 or 7.4 μM, on ice 2 h, HEK293-CXCR2 compared to non-transfected HEK293, flow cytometry, n=4–7

Row | half-life [1] | Compound | Concentration dependence of CD spectra (solubility/aggregation check) [2] | CXCR2-binding response (change of resonant wavelength Δpm) (CXCR2 [4]) | other results
1 | > 480 min | CSCC[C@@H]1NC(=O)[C@H](CC(C)C)NC(=O)CNC(=O)CNC(=O)[C@H](CO)NC(=O)CNC(=O)CNC(=O)[C@@H](N)CSSC[C@@H](C(=O)O)NC(=O)CNC(=O)CNC(=O)[C@H](CO)NC(=O)CNC(=O)CNC(=O)[C@@H]2CCCN2C(=O)[C@H](CCC(=O)O)NC(=O)[C@H](CO)NC(=O)[C@H](CO)NC(=O)CNC(=O)CNC(=O)[C@H](Cc2ccccc2)NC(=O)[C@H](C)NC1=O [MIF(cyclo10)] (H-CGGSGGLMAFGGSSEPGGSGGC-OH; disulfide 1-22) | no concentration dependence of the CD spectra | – | Time up to which appreciable amounts of intact peptide were detectable ([1]; human plasma, C18 HPLC and MALDI-MS): up to 48 h; Resistance to proteolysis relative to MIF(47–56) ([1]; human plasma, ratio of t1/2): more than 16 fold
2 | ~30 min | Ac-LMAFGGSSEP-NH2 [MIF(47–56)] | no concentration dependence of the CD spectra | found to bind to HEK293‐CXCR2 transfectants | Direct binding to MIF [3]: does not directly bind to MIF; Inhibition of MIF-induced monocyte chemotaxis [5]: significantly inhibited
3 | – | Ac-SFESGPAGML-NH2 [scrambled control sequence, reference compound] | – | fully abrogated | –
4 | – | Fluos‐MIF(47–56): fluorescently labeled MIF(47–56), 5(6)‐carboxyfluorescein at the N-terminus (Fluos-MAFGGSSEPC; UniProt P14174 48-57, looked up, fragment) | – | – | Binding to cell surface-expressed CXCR2 (MFI) (CXCR2 [6]): specifically bound to full‐length CXCR2
